Reference: paper doi:10.1101/2025.10.29.685286v1 (biorxiv, 2025)

Target: T1, NmGNAT (Nakamurella multipartita, UniProt C8XEF8)
T1 sequence (C8XEF8 1-164): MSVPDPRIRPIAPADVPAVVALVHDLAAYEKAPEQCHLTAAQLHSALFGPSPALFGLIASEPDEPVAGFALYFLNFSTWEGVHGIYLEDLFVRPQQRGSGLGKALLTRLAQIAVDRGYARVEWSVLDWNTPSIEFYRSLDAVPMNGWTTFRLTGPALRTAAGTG
Assay: microscale thermophoresis
Format: binding

SMILES | Kd
CC(=O)SCCNC(=O)CCNC(=O)[C@H](O)C(C)(C)COP(=O)(O)OP(=O)(O)OC[C@H]1O[C@@H](n2cnc3c(N)ncnc32)[C@H](O)[C@@H]1OP(=O)(O)O [acetyl-CoA] | 18.9 ± 3.2 µM
NCCCC[C@H](N)C(=O)O [lysine] | 137 ± 4.2 µM
